In experiment [1] the target is T1, β-Glucuronidase from E. coli (Escherichia coli, UniProt P05804). The experiment in a line: β-Glucuronidase inhibitory activity assay with PNPG substrate. As to conditions: for inhibition at 100 µM: read-out: Inhibition of Compounds on β-glucuronidase, Inhibition at 100 μM (%); for Inhibition of Compounds on β-glucuronidase, Inhibition at 100 μM (%): compound at 100 μM.

Experiment [2] relates to PTP1B enzyme. Further details: method as in PMID 34416263. Conditions: in words; cited from earlier work.
For experiment [3], the target named is T1, β-Glucuronidase from E. coli. The experiment in a line: Inhibition kinetic analysis with β-glucuronidase (Lineweaver–Burk and Dixon plots). The experiment is classed as biochemical. As to conditions: for Ki: determined by Dixon plots; for Inhibition Type: determined by Lineweaver–Burk plots. The procedure:
To identify the inhibition mode of the active compounds on β-glucuronidase, two enzyme kinetic methodologies, the Lineweaver-Burk and Dixon methods, were used. The mode of β-glucuronidase inhibition was determined using a Lineweaver–Burk plot (or double reciprocal plot) at various concentrations of the substrate in the absence or presence of the test compound (concentrations: 0, 10, 20, 40, 60, and 80 µM for 13 and 15; 0, 7.5, 15, 30, 60, and 80 µM for 14; 0, 5, 10, 20, 40, and 60 µM for 26 and 27; and 0, 2.5, 5, 10, 20, and 40 µM for 28). The enzymatic reactions at various concentrations of the test compounds were evaluated by monitoring the effects of different substrate concentrations using Dixon plots (or single reciprocal plots) (0.25, 0.5, 1, and 2.5 mM). Ki values were determined by analyzing the Dixon plot, where the x-axis value was taken as Ki.

The test system of experiment [4] is neuraminidase of influenza virus H5N1. As to conditions: read-out: inhibitory effect on neuraminidase IC50; cited from earlier work.
The test system of experiment [5] is B16F10 murine melanoma cells. More on the design: method as in doi:10.1016/j.phytol.2017.05.022. As to conditions: read-out: inhibition of melanin production IC50; cited from earlier work.
The mark [6] stands for this setting: PNPG substrate, mean ± SEM of three independent experiments.
The mark [7] stands for this setting: read-out: Inhibition of Compounds on β-glucuronidase, IC50, PNPG substrate, mean ± SEM of three independent experiments.

Where two headings read alike, the source gives them in different places. Some results are limits rather than exact numbers.

A word on the IC50: it is the concentration that gives 50% inhibition. By inhibition is commonly meant the change of the read-out against control, counted positive when it falls. The term Ki denotes the equilibrium dissociation constant of an inhibitor or competing ligand from its target. Read a high Ki as a looser hold on the target.

T1 sequence (P05804 whole entry): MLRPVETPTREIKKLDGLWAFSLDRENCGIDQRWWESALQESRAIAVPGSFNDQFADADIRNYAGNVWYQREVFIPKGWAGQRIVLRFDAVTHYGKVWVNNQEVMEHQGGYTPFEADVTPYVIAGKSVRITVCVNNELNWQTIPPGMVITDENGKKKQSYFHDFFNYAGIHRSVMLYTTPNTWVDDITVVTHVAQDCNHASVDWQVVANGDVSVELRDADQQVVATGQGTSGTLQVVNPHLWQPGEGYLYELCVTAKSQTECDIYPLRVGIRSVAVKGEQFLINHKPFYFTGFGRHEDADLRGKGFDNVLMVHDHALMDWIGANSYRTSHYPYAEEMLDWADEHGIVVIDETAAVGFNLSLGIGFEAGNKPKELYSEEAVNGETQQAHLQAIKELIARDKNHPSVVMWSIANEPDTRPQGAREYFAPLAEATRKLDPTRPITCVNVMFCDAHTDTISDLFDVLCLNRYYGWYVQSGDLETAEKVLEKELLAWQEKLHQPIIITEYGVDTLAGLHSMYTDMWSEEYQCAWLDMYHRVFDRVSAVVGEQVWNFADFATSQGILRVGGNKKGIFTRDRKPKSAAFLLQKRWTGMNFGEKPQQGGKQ

Take `CCCC(=O)C1=C(O)C(C)(C)C(O)=C(Cc2c(O)cc(O)c(C(=O)CCC)c2O)C1=O` [Compound 19, norflavaspidic acid BB]: in experiment [1], the IC50 is over 100 µM and the inhibition at 100 µM was found to be 41 ± 1.4%.

On to `CCCC(=O)C1=C(O)C(C)(C)C(O)=C(Cc2c(O)c(Cc3c(O)c(C)c(O)c(C(=O)CCC)c3O)c(O)c(C(=O)CCC)c2O)C1=O` [Compound 28, trisflavaspidic acid BBB], for which, in experiment [1], the IC50 came to 5.6 ± 1.1 µM and the inhibition at 100 µM was found to be 106 ± 3.4%. Further, the “activity toward the PTP1B enzyme” value in experiment [2] is recorded as “significant activity”. Also, in experiment [3], affinity was put at a Ki of 2.8 µM and the “Inhibition Type” value is on record as “Competitive”.

For the molecule “1-(2,4,6-trihydroxy-3-methylphenyl)propanone [Compound 7]”, the “Inhibition of Compounds on β-glucuronidase, Inhibition at 100 μM (%)” value in experiment [1] (setting [6]) was 26.7 ± 1.5%. In experiment [1] (setting [7]), the 50% inhibitory concentration (IC50) was over 100 µM.

As for `CCCC(=O)c1c(O)cc(O)cc1O` [Compound 3, phlorobutyrophenone], in experiment [1], the IC50 is over 100 µM and the inhibition at 100 µM came to 22 ± 2.1%.

In the case of `CCCC(=O)c1c(O)cc(O)c(Cc2c(O)c(C)c(O)c(C(=O)CCC)c2O)c1O` [Compound 15, araspidin BB], in experiment [1], the IC50 is 17 ± 2.5 µM and the inhibition at 100 µM is 89.1 ± 0.3%. In addition, in experiment [3], the affinity, expressed as Ki, was 25.8 µM and the “Inhibition Type” value was “Competitive”.

As to `CCCC(=O)c1c(O)c(C)c(O)c(CC2=C(O)C(C)(C)C(O)=C(C(C)=O)C2=O)c1O` [Compound 22, flavaspidic acid AB], in experiment [1], the half-inhibitory concentration (IC50) is over 100 µM and the inhibition at 100 µM came to 48.7 ± 4.8%.

Consider `CCC(=O)c1c(O)c(C(=O)CC)c(O)c(C(=O)CC)c1O` [Compound 10, tripropionylphloroglucinol], for which, in experiment [1], the IC50 is over 100 µM and the inhibition at 100 µM was 41.4 ± 1.7%.

In the case of `CC(=O)c1c(O)cc(O)c(C(C)=O)c1O` [Compound 4, 5-acetyl-2,4,6-trihydroxyacetophenone], in experiment [1], the IC50 was over 100 µM and the inhibition at 100 µM worked out at 22.1 ± 2.4%.

In the case of `CCCC(=O)c1c(O)cc(O)c(Cc2c(O)c(CC3=C(O)C(C)(C)C(O)=C(C(C)=O)C3=O)c(O)c(C(=O)CCC)c2O)c1O` [Compound 26, nortrisflavaspidic acid ABB], in experiment [1], 8 ± 1.8 µM corresponded to half-maximal inhibition (IC50) and the inhibition at 100 µM turned out to be 98.1 ± 2.5%. In experiment [2], the “activity toward the PTP1B enzyme” value is “significant activity”. In addition, the IC50 in experiment [4] was 51.5 µM. Further, in experiment [3], the Ki is 7.5 µM and the “Inhibition Type” value is recorded as “Competitive”.

As to `CCCC(=O)c1c(O)cc(O)c(C(=O)CCC)c1O` [Compound 6, 1,3-(2,4,6-trihydroxyphenyl)dibutanone], in experiment [1], the IC50 is over 100 µM and the inhibition at 100 µM came to 33.7 ± 2.3%.

As for `CCCC(=O)c1c(O)c(C(=O)CCC)c(O)c(C(=O)CCC)c1O` [Compound 11, tributyrylphloroglucinol], in experiment [1], the IC50 stood at 43 ± 2.9 µM and the inhibition at 100 µM turned out to be 87.3 ± 3.4%.

As to `CCC(=O)c1c(O)cc(O)c(C(=O)CC)c1O` [Compound 5, 1,3-(2,4,6-trihydroxyphenyl)dipropanone], in experiment [1], the IC50 is over 100 µM and the inhibition at 100 µM was 27.1 ± 0.4%.

As to `CCC(=O)c1c(O)cc(O)c(CC2=C(O)C(C)(C)C(O)=C(C(C)=O)C2=O)c1O` [Compound 16, norflavaspidic acid AP], in experiment [1], the IC50 was 64.4 ± 3.5 µM and the inhibition at 100 µM was determined as 68.3 ± 0.2%.

Regarding `CCCC(=O)c1c(O)c(C)c(O)c(CC2=C(O)C(C)(C)C(O)=C(C(=O)CC)C2=O)c1O` [Compound 23, flavaspidic acid PB], in experiment [1], 76.5 ± 1.5 µM corresponded to half-maximal inhibition (IC50) and the inhibition at 100 µM is 73.5 ± 0.7%. Also, in experiment [5], the IC50 is 38.9 µM.

As to `CC(=O)C1=C(O)C(C)(C)C(O)=C(Cc2c(O)c(C)c(O)c(C(C)=O)c2O)C1=O` [Compound 20, flavaspidic acid AA], in experiment [1], inhibition was half-maximal at 75.7 ± 1.2 µM (IC50) and the inhibition at 100 µM was 76.1 ± 3.4%.

`CCCC(=O)c1c(O)cc(O)c(Cc2c(O)cc(O)c(C(=O)CCC)c2O)c1O` [Compound 14, methylene-bis-phlorobutyrophenone]: in experiment [1], the IC50 was determined as 14.4 ± 0.6 µM and the inhibition at 100 µM turned out to be 97.1 ± 0.7%. Further, in experiment [3], the affinity, expressed as Ki, was 4.3 µM and the “Inhibition Type” value is listed as “Competitive”.

In the case of `CCCC(=O)c1c(O)cc(O)c(CC2=C(O)C(C)(C)C(O)=C(C(=O)CC)C2=O)c1O` [Compound 18, norflavaspidic acid PB], in experiment [1], the IC50 is over 100 µM and the inhibition at 100 µM turned out to be 42.2 ± 0.1%. Further, the half-inhibitory concentration (IC50) in experiment [5] is 35.7 µM.

For `CCCC(=O)c1c(O)cc(O)c(Cc2c(O)cc(O)c(C(=O)CC)c2O)c1O` [Compound 13, dryopidin PB], in experiment [1], half-maximal inhibition (IC50) required 18.1 ± 1.5 µM and the inhibition at 100 µM amounted to 93.7 ± 0.3%. In experiment [3], affinity was put at a Ki of 6.3 µM and the “Inhibition Type” value is on record as “Competitive”.

For `CCC(=O)c1c(O)cc(O)cc1O` [Compound 2, 1-(2,4,6-trihydroxy-phenyl)-propan-1-one], in experiment [1], the IC50 was over 100 µM and the inhibition at 100 µM is 24.4 ± 0.2%.

On to `CCCC(=O)c1c(O)cc(O)c(-c2c(O)cc(O)c(C(=O)CCC)c2O)c1O` [Compound 12, bis-phlorobutyrophenone], for which, in experiment [1], the IC50 was over 100 µM and the inhibition at 100 µM worked out at 34.1 ± 0.5%.

For the molecule “1-(2, 4, 6-trihydroxy-3-methylphenyl) butanone [Compound 8]”, the “Inhibition of Compounds on β-glucuronidase, Inhibition at 100 μM (%)” value in experiment [1] (setting [6]) is 24.9 ± 5.5%. Further, the IC50 in experiment [1] (setting [7]) is over 100 µM.

Consider `CCCC(=O)c1c(O)c(CC2=C(O)C(C)(C)C(O)=C(C(C)=O)C2=O)c(O)c(CC2=C(O)C(C)(C)C(O)=C(C(C)=O)C2=O)c1O` [Compound 29, filixic acid ABA], for which, in experiment [1], the IC50 is 90.5 ± 2.7 µM and the inhibition at 100 µM is 53.4 ± 2.3%. The IC50 in experiment [4] was 29.6 µM.

On to `CCCC(=O)c1c(O)c(C)c(O)c(Cc2c(O)c(CC3=C(O)C(C)(C)C(O)=C(C(C)=O)C3=O)c(O)c(C(=O)CCC)c2O)c1O` [Compound 27, trisflavaspidic acid ABB], for which, in experiment [1], the IC50 worked out at 7.1 ± 2.6 µM and the inhibition at 100 µM was 101.2 ± 0.6%. In experiment [2], the “activity toward the PTP1B enzyme” value is reported as “significant activity”. Also, in experiment [3], the Ki amounted to 0.5 µM and the “Inhibition Type” value is “Competitive”.

On to `CC(=O)c1c(O)cc(O)cc1O` [Compound 1, 2,4,6-trihydroxy-acetophenone], for which, in experiment [1], the IC50 was over 100 µM and the inhibition at 100 µM was 11.6 ± 3.9%.

Regarding `CCCC(=O)c1c(O)cc(O)c(CC2=C(O)C(C)(C)C(O)=C(C(C)=O)C2=O)c1O` [Compound 17, norflavaspidic acid AB], in experiment [1], the IC50 was 67 ± 1.3 µM and the inhibition at 100 µM was 65.1 ± 0.1%.

Take `CCC(=O)c1c(O)c(C)c(O)c(CC2=C(O)C(C)(C)C(O)=C(C(C)=O)C2=O)c1O` [Compound 21, flavaspidic acid AP]: in experiment [1], the IC50 is over 100 µM and the inhibition at 100 µM was found to be 47.9 ± 4.7%.

Turning to `CCCC(=O)c1c(O)c(CC2=C(O)C(C)(C)C(O)=C(C(C)=O)C2=O)c(O)c(C2CCCN2C(=N)N)c1O` (centres unmarked) [Compound 25, dryopcrassirine AB], in experiment [1], the IC50 is over 100 µM and the inhibition at 100 µM was determined as 30.7 ± 1.7%.

Turning to `O=C(O)[C@@H](O)[C@H]1OC(=O)[C@H](O)[C@H]1O` [DSA, D-saccharic acid 1,4-lactone, reference compound], in experiment [1], half-maximal inhibition (IC50) was put at 23.4 ± 1.5 µM and the inhibition at 100 µM was 79 ± 0.3%.

Turning to `CCCC(=O)c1c(O)c(CC2=C(O)C(C)(C)C(O)=C(C(C)=O)C2=O)c(O)c(Cc2c(O)c(CC3=C(O)C(C)(C)C(O)=C(C(C)=O)C3=O)c(O)c(C(=O)CCC)c2O)c1O` [Compound 30, dryocrassin ABBA], in experiment [1], the IC50 worked out at 94.9 ± 2.5 µM and the inhibition at 100 µM came out at 51.8 ± 2.7%.

(Values after publication PMC9610990, “Inhibitory Activity of Bioactive Phloroglucinols from the Rhizomes of Dryopteris crassirhizoma on Escherichia coli β-Glucuronidase: Kinetic Analysis and Molecular Docking Studies” (Metabolites, 2022).)
